Values after ≈ are worked out from the molar mass of the structure shown.
Experiments:
Escherichia coli [1] = assay: In vitro inhibitory activity against protein synthesis was determined by transcription/translation assay with Escherichia coli S30 Extract System.; format: functional
Staphylococcus aureus [2] = assay: In vitro antibacterial activity against oxazolidinone Linezolid resistant Staphylococcus aureus (Sau3LZD) was determined; format: functional
Staphylococcus aureus [3] = assay: In vitro antibacterial activity against ciprofloxacin and methicillin resistant Staphylococcus aureus (Sau2CIP) was determined; format: functional
Escherichia coli [4] = assay: In vitro antibacterial activity against Escherichia coli ATCC 25922 (Ecol) was determined; format: functional
DNA gyrase = DNA gyrase (Escherichia coli, UniProt P0AES4+P0AES6); assay: Inhibitory activity against DNA gyrase enzyme was determined by supercoiling assay with Escherichia coli DNA gyrase; format: protein-complex assay
[5] = Inhibitory activity against Escherichia coli Topoisomerase IV in relaxation assay; format: functional
Enterococcus faecium = assay: In vitro antibacterial activity against vancomycin and ciprofloxacin resistant Enterococcus faecium (Efm CIP) was determined; format: functional
Escherichia coli [6] = assay: In vitro antibacterial activity against Escherichia coli AS19 (Eco2), permeable mutant was determined; format: functional
Haemophilus influenzae = assay: In vitro antibacterial activity against Haemophilus influenzae 11 (Hin) was determined; format: functional
Enterococcus faecalis = assay: In vitro antibacterial activity against Enterococcus faecalis ATCC 29212 (Efs) was determined; format: functional
Staphylococcus aureus [7] = assay: In vitro antibacterial activity against […] Staphylococcus aureus ATCC 29213 (Saul); format: functional

| Compound | IC50 (Escherichia coli [1]) | MIC (Staphylococcus aureus [2]) | MIC (Staphylococcus aureus [3]) | MIC (Escherichia coli [4]) | IC50 (DNA gyrase) | IC50 [5] | MIC (Enterococcus faecium) | MIC (Escherichia coli [6]) | MIC (Haemophilus influenzae) | MIC (Enterococcus faecalis) | MIC (Staphylococcus aureus [7]) |
| --- | --- | --- | --- | --- | --- | --- | --- | --- | --- | --- | --- |
| CC(=O)NC[C@H]1CN(c2ccc(OC3CCN(c4nc5c(cc4F)c(=O)c(C(=O)O)cn5C4CC4)CC3)c(F)c2)C(=O)O1 | 5.2 µM | 1 µg/mL (≈ 1.67 µM) | 0.25 µg/mL (≈ 0.418 µM) | 32 µg/mL (≈ 53.5 µM) | 50 µM | 5 µM | 0.25 µg/mL (≈ 0.418 µM) | 0.25 µg/mL (≈ 0.418 µM) | 1 µg/mL (≈ 1.67 µM) | 0.125 µg/mL (≈ 0.209 µM) | 0.25 µg/mL (≈ 0.418 µM) |
| CC(=O)NC[C@H]1CN(c2ccc(OCC3CCN(c4nc5c(cc4F)c(=O)c(C(=O)O)cn5C4CC4)C3)c(F)c2)C(=O)O1 (stereo not given in full) | 1.5 µM | ≤ 0.06 µg/mL | 0.125 µg/mL (≈ 0.209 µM) | 1 µg/mL (≈ 1.67 µM) | 2 µM |  | 0.25 µg/mL (≈ 0.418 µM) | ≤ 0.06 µg/mL | 0.125 µg/mL (≈ 0.209 µM) | 0.125 µg/mL (≈ 0.209 µM) | 0.125 µg/mL (≈ 0.209 µM) |
| CC(=O)NC[C@H]1CN(c2ccc(OC[C@H]3CCN(c4nc5c(cc4F)c(=O)c(C(=O)O)cn5C4CC4)C3)c(F)c2)C(=O)O1 |  | 0.125 µg/mL (≈ 0.209 µM) | 0.125 µg/mL (≈ 0.209 µM) | 1 µg/mL (≈ 1.67 µM) |  |  | 0.125 µg/mL (≈ 0.209 µM) | ≤ 0.06 µg/mL | 0.25 µg/mL (≈ 0.418 µM) | 0.06 µg/mL (≈ 0.1 µM) | 0.125 µg/mL (≈ 0.209 µM) |
| CC(=O)NC[C@H]1CN(c2ccc(OC3CCCN(c4nc5c(cc4F)c(=O)c(C(=O)O)cn5C4CC4)C3)c(F)c2)C(=O)O1 (stereo not given in full) |  | 16 µg/mL (≈ 26.8 µM) | 16 µg/mL (≈ 26.8 µM) | > 32 µg/mL |  |  | > 32 µg/mL | 8 µg/mL (≈ 13.4 µM) | 2 µg/mL (≈ 3.35 µM) | 16 µg/mL (≈ 26.8 µM) | 32 µg/mL (≈ 53.5 µM) |
| CC(=O)NC[C@H]1CN(c2ccc(O[C@H]3CCN(c4nc5c(cc4F)c(=O)c(C(=O)O)cn5C4CC4)C3)c(F)c2)C(=O)O1 | 6.7 µM | ≤ 0.06 µg/mL | 0.25 µg/mL (≈ 0.428 µM) | 1 µg/mL (≈ 1.71 µM) | 10 µM | 3 µM | 1 µg/mL (≈ 1.71 µM) | ≤ 0.06 µg/mL | ≤ 0.06 µg/mL | 0.125 µg/mL (≈ 0.214 µM) | ≤ 0.06 µg/mL |
| CC(=O)NC[C@H]1CN(c2ccc(N3CCOCC3)c(F)c2)C(=O)O1 [LINEZOLID] | 4.1 µM | 64 µg/mL (≈ 190 µM) | 1 µg/mL (≈ 2.96 µM) | > 64 µg/mL |  |  | 2 µg/mL (≈ 5.93 µM) | 8 µg/mL (≈ 23.7 µM) | 8 µg/mL (≈ 23.7 µM) |  |  |
| CC(=O)NC[C@H]1CN(c2ccc(N3CCN(c4nc5c(cc4F)c(=O)c(C(=O)O)cn5C4CC4)CC3)c(F)c2)C(=O)O1 | 2.8 µM | 8 µg/mL (≈ 13.7 µM) | 0.25 µg/mL (≈ 0.429 µM) | 32 µg/mL (≈ 54.9 µM) | 50 µM | 10 µM | 0.25 µg/mL (≈ 0.429 µM) | 0.06 µg/mL (≈ 0.103 µM) | 1 µg/mL (≈ 1.72 µM) | 0.125 µg/mL (≈ 0.215 µM) | 0.25 µg/mL (≈ 0.429 µM) |
| CC(=O)NC[C@H]1CN(c2ccc(OC3CCCN(c4nc5c(cc4F)c(=O)c(C(=O)O)cn5C4CC4)CC3)c(F)c2)C(=O)O1 (stereo not given in full) |  | 0.5 µg/mL (≈ 0.818 µM) | 0.25 µg/mL (≈ 0.409 µM) | 8 µg/mL (≈ 13.1 µM) |  |  | 0.5 µg/mL (≈ 0.818 µM) | ≤ 0.06 µg/mL | 1 µg/mL (≈ 1.64 µM) | 0.25 µg/mL (≈ 0.409 µM) | 0.5 µg/mL (≈ 0.818 µM) |
| CC(=O)NC[C@H]1CN(c2ccc(OC[C@@H]3CCN(c4nc5c(cc4F)c(=O)c(C(=O)O)cn5C4CC4)C3)c(F)c2)C(=O)O1 |  | ≤ 0.06 µg/mL | 0.25 µg/mL (≈ 0.418 µM) | 1 µg/mL (≈ 1.67 µM) |  |  | 0.5 µg/mL (≈ 0.837 µM) | ≤ 0.06 µg/mL | 0.125 µg/mL (≈ 0.209 µM) | 0.125 µg/mL (≈ 0.209 µM) | ≤ 0.06 µg/mL |
| CC(=O)NC[C@H]1CN(c2ccc(OCCC3CCN(c4nc5c(cc4F)c(=O)c(C(=O)O)cn5C4CC4)C3)c(F)c2)C(=O)O1 (stereo not given in full) |  | 0.125 µg/mL (≈ 0.204 µM) | 0.125 µg/mL (≈ 0.204 µM) | 2 µg/mL (≈ 3.27 µM) |  |  | 0.125 µg/mL (≈ 0.204 µM) | ≤ 0.06 µg/mL | 0.5 µg/mL (≈ 0.818 µM) | 0.06 µg/mL (≈ 0.0981 µM) | 0.125 µg/mL (≈ 0.204 µM) |
| O=C(O)c1cn(C2CC2)c2cc(N3CCNCC3)c(F)cc2c1=O [CIPROFLOXACIN] | > 20 µM | 0.5 µg/mL (≈ 1.51 µM) | > 32 µg/mL | ≤ 0.03 µg/mL |  | 2.5 µM | > 32 µg/mL | ≤ 0.03 µg/mL | ≤ 0.03 µg/mL | 1 µg/mL (≈ 3.02 µM) | 0.5 µg/mL (≈ 1.51 µM) |
| CC(=O)NC[C@H]1CN(c2ccc(OC3CN(c4nc5c(cc4F)c(=O)c(C(=O)O)cn5C4CC4)C3)c(F)c2)C(=O)O1 |  | ≤ 0.06 µg/mL | 0.5 µg/mL (≈ 0.878 µM) | 1 µg/mL (≈ 1.76 µM) |  |  | 2 µg/mL (≈ 3.51 µM) | ≤ 0.06 µg/mL | 0.125 µg/mL (≈ 0.219 µM) | 0.5 µg/mL (≈ 0.878 µM) | 0.25 µg/mL (≈ 0.439 µM) |
| CC(=O)NC[C@H]1CN(c2ccc(N[C@@H]3CCN(c4nc5c(cc4F)c(=O)c(C(=O)O)cn5C4CC4)C3)c(F)c2)C(=O)O1 |  | ≤ 0.06 µg/mL | 1 µg/mL (≈ 1.72 µM) | 0.5 µg/mL (≈ 0.858 µM) |  |  | 8 µg/mL (≈ 13.7 µM) | ≤ 0.06 µg/mL | ≤ 0.06 µg/mL | ≤ 0.06 µg/mL | ≤ 0.06 µg/mL |
| CC(=O)NC[C@H]1CN(c2ccc(OCC3CCN(c4nc5c(cc4F)c(=O)c(C(=O)O)cn5C4CC4)CC3)c(F)c2)C(=O)O1 |  | 1 µg/mL (≈ 1.64 µM) | 0.125 µg/mL (≈ 0.204 µM) | > 32 µg/mL |  |  | 0.125 µg/mL (≈ 0.204 µM) | 0.125 µg/mL (≈ 0.204 µM) | 0.5 µg/mL (≈ 0.818 µM) | ≤ 0.06 µg/mL | 0.125 µg/mL (≈ 0.204 µM) |
| CC(=O)NC[C@H]1CN(c2ccc(O[C@@H]3CCN(c4nc5c(cc4F)c(=O)c(C(=O)O)cn5C4CC4)C3)c(F)c2)C(=O)O1 |  | 0.5 µg/mL (≈ 0.857 µM) | 0.5 µg/mL (≈ 0.857 µM) | 8 µg/mL (≈ 13.7 µM) |  |  | 2 µg/mL (≈ 3.43 µM) | ≤ 0.06 µg/mL | 0.5 µg/mL (≈ 0.857 µM) | 0.5 µg/mL (≈ 0.857 µM) | 1 µg/mL (≈ 1.71 µM) |
| CC(=O)NC[C@H]1CN(c2ccc(OCCC3CCN(c4nc5c(cc4F)c(=O)c(C(=O)O)cn5C4CC4)CC3)c(F)c2)C(=O)O1 |  | 1 µg/mL (≈ 1.6 µM) | 0.125 µg/mL (≈ 0.2 µM) | > 32 µg/mL |  |  | 0.125 µg/mL (≈ 0.2 µM) | ≤ 0.06 µg/mL | 2 µg/mL (≈ 3.2 µM) | 0.125 µg/mL (≈ 0.2 µM) | 0.125 µg/mL (≈ 0.2 µM) |

Source: ChEMBL document CHEMBL1146637, “Structure-activity relationship in the oxazolidinone-quinolone hybrid series: influence of the central spacer on the antibacterial activity and the mode of action” (Bioorg Med Chem Lett, 2003)
